Where a name gives a salt, the structure may show the parent alone.
Tests used:
Assay type in all cases: cell-based
[1] = system: A375 (Amelanotic Melanoma); experiment: Cell viability analysis (WST-1), A375; conditions: WST-1, OD450 nm, lower viability = better inhibition; for viability at 10 µM: Homo sapiens, A-375, 72 h, Table 3, drug 10 μM, read-out: survival rate (viability) of cancer cells, A375
[2] = system: HCT116 (Colorectal Carcinoma); experiment: Cell viability analysis (WST-1), HCT116; conditions: WST-1, OD450 nm; for viability at 10 µM: Homo sapiens, HCT-116, 72 h, Table 3, drug 10 μM, read-out: survival rate (viability) of cancer cells, HCT116 (WT)
[3] = system: HepG2 (Hepatocellular Carcinoma); experiment: Cell viability analysis (WST-1), HepG2; conditions: WST-1, OD450 nm; for viability at 10 µM: Homo sapiens, HepG2, 72 h, Table 3, drug 10 μM, read-out: survival rate (viability) of cancer cells, HepG2
[4] = system: HeLa (Cervix Adenocarcinoma); experiment: Cell viability analysis (WST-1), HeLa; conditions: WST-1, OD450 nm; for viability at 10 µM: Homo sapiens, HeLa, 72 h, Table 3, drug 10 μM, read-out: survival rate (viability) of cancer cells, HeLa
[5] = system: AGS (Gastric Adenocarcinoma); experiment: Cell viability analysis (WST-1), AGS; conditions: WST-1, OD450 nm; for viability at 10 µM: 72 h, Table 3, drug 10 μM, read-out: survival rate (viability) of cancer cells, AGS
[6] = system: H1650 (Lung Adenocarcinoma); experiment: Cell viability analysis (WST-1), H1650; conditions: WST-1, OD450 nm; for viability at 10 µM: Homo sapiens, NCI-H1650, 72 h, Table 3, drug 10 μM, read-out: survival rate (viability) of cancer cells, H1650
[7] = system: MKN-45 (Gastric Adenocarcinoma); experiment: Cell viability analysis (WST-1), MKN-45; conditions: WST-1, OD450 nm; for viability at 10 µM: Homo sapiens, MKN-45, 72 h, Table 3, drug 10 μM, read-out: survival rate (viability) of cancer cells, MKN-45
[8] = system: TSGH-8301 (Urinary Bladder Carcinoma); experiment: Cell viability analysis (WST-1), TSGH-8301; conditions: WST-1, OD450 nm; for viability at 10 µM: 72 h, Table 3, drug 10 μM, read-out: survival rate (viability) of cancer cells, TSGH
[9] = system: A549 (Lung Adenocarcinoma); experiment: Cell viability analysis (WST-1), A549; conditions: WST-1, OD450 nm; for viability at 10 µM: Homo sapiens, A549, 72 h, Table 3, drug 10 μM, read-out: survival rate (viability) of cancer cells, A549
[10] = system: MCF7 (Mammary Gland, Adenocarcinoma); experiment: Cell viability analysis (WST-1), MCF7; conditions: WST-1, OD450 nm; for viability at 10 µM: Homo sapiens, MCF7, 72 h, Table 3, drug 10 μM, read-out: survival rate (viability) of cancer cells, MCF7
[11] = system: PC3 (Prostate Adenocarcinoma); experiment: Cell viability analysis (WST-1), PC3; conditions: WST-1, OD450 nm; for viability at 10 µM: 72 h, Table 3, drug 10 μM, read-out: survival rate (viability) of cancer cells, PC3
[12] = system: LoVo (Colorectal Adenocarcinoma); experiment: Cell viability analysis (WST-1), LoVo; conditions: WST-1, OD450 nm; for viability at 10 µM: Homo sapiens, LoVo, 72 h, Table 3, drug 10 μM, read-out: survival rate (viability) of cancer cells, LoVo
[13] = system: HL-60 (Acute Promyelocytic Leukemia); experiment: Cell viability analysis (WST-1), HL-60; conditions: Table 3, drug 10 μM, 72 hours, WST-1, OD450 nm; for viability at 10 µM: Homo sapiens, HL-60, read-out: survival rate (viability) of cancer cells, HL-60
cancer cell lines = experiment: Growth inhibitory effects on the panel of cancer cell lines; conditions: drug 10 μM, 72 hours; for Numbers of inhibitory effect on cancer cell line: count of cancer cell lines inhibited; for inhibition effect on different cancer cell lines (in words): WST-1

Structure (SMILES) | viability at 10 µM [1] [%] | viability at 10 µM [2] [%] | viability at 10 µM [3] [%] | viability at 10 µM [4] [%] | viability at 10 µM [5] [%] | viability at 10 µM [6] [%] | viability at 10 µM [7] [%] | viability at 10 µM [8] [%] | viability at 10 µM [9] [%] | viability at 10 µM [10] [%] | viability at 10 µM [11] [%] | viability at 10 µM [12] [%] | viability at 10 µM [13] [%] | Numbers of inhibitory effect on cancer cell line (cancer cell lines) | inhibition effect on different cancer cell lines (in words) (cancer cell lines) | also measured
COCCCOc1cc(C[C@@H](C[C@H](N)[C@@H](O)C[C@H](C(=O)NCC(C)(C)C(N)=O)C(C)C)C(C)C)ccc1OC [Aliskiren hemifumarate] | 91.2 | 97.2 | 94.2 | 108 | 81.8 | 79.8 | 85.1 | 73.3 | 92 | 99.1 | 89 | 99.5 | 98.5 | 0 | significant inhibition effect | 
CCOC(=O)[C@H](CCc1ccccc1)N[C@H]1CCc2ccccc2N(CC(=O)O)C1=O [Benazepril hydrochloride] | 104 | 60 | 93 | 75.9 | 76.7 | 61.6 | 103 | 77.5 | 81.8 | 126 | 80.7 | 96 | 93.6 | 0 | significant inhibition effect | 
CC(=O)Oc1ccc(C(c2ccc(OC(C)=O)cc2)c2ccccn2)cc1 [Bisacodyl] | 88 | 122 | 100 | 89.2 | 107 | 93.6 | 132 | 104 | 66.7 | 65 | 83.7 | 85.5 | 96 | 0 | significant inhibition effect | 
CC(C)NCC(O)COc1ccc(COCCOC(C)C)cc1 (stereo not drawn) [Bisoprolol] | 117 | 118 | 108 | 111 | 80.3 | 80.7 | 79.7 | 87.5 | 124 | 112 | 95.2 | 119 | 85.7 | 0 | significant inhibition effect | 
CCCCNc1cc(C(=O)O)cc(S(N)(=O)=O)c1Oc1ccccc1 [Bumetanide] | 67.6 | 66.8 | 86 | 79.5 | 69.9 | 105 | 98.8 | 92.6 | 88.2 | 116 | 72.7 | 98.6 | 98.3 | 0 | significant inhibition effect | 
O=C(O)c1cc(=O)c2ccccc2o1 [Chromocarb] | 63.4 | 72.8 | 95.6 | 67.6 | 81.8 | 78.8 | 100 | 97.2 | 61.1 | 100 | 88.3 | 72.5 | 110 | 0 | significant inhibition effect | 
Cc1cccc(Cc2c[nH]cn2)c1C [Detomidine HCl] | 84.8 | 133 | 102 | 88.8 | 68.5 | 90.6 | 91 | 74.2 | 81.1 | 106 | 89.2 | 91 | 105 | 0 | significant inhibition effect | 
Cc1c(OCC(F)(F)F)ccnc1C[S@@+]([O-])c1nc2ccccc2[nH]1 [Dexlansoprazole] | 75.1 | 82.8 | 120 | 105 | 89.8 | 69.6 | 85.8 | 84.9 | 74.5 | 72.1 | 104 | 102 | 72.2 | 0 | significant inhibition effect | 
CNC[C@@H](O)c1ccc(O)c(O)c1 [L-Adrenaline (Epinephrine), L-Adrenaline] |  |  |  |  |  |  |  |  |  |  |  |  |  | 0 | significant inhibition effect | survival rate (viability) of cancer cells, A375 ([1]; Table 3, drug 10 μM, 72 hours): 101.9; survival rate (viability) of cancer cells, HCT116 (WT) ([2]; Table 3, drug 10 μM, 72 hours): 85.0; survival rate (viability) of cancer cells, HepG2 ([3]; Table 3, drug 10 μM, 72 hours): 81.6; survival rate (viability) of cancer cells, HeLa ([4]; Table 3, drug 10 μM, 72 hours): 88.7; survival rate (viability) of cancer cells, AGS ([5]; Table 3, drug 10 μM, 72 hours): 61.1; survival rate (viability) of cancer cells, H1650 ([6]; Table 3, drug 10 μM, 72 hours): 76.6; survival rate (viability) of cancer cells, MKN-45 ([7]; Table 3, drug 10 μM, 72 hours): 69.4; survival rate (viability) of cancer cells, TSGH ([8]; Table 3, drug 10 μM, 72 hours): 64.7; survival rate (viability) of cancer cells, A549 ([9]; Table 3, drug 10 μM, 72 hours): 90.8; survival rate (viability) of cancer cells, MCF7 ([10]; Table 3, drug 10 μM, 72 hours): 123.0; survival rate (viability) of cancer cells, PC3 ([11]; Table 3, drug 10 μM, 72 hours): 106.0; survival rate (viability) of cancer cells, LoVo ([12]; Table 3, drug 10 μM, 72 hours): 93.6; survival rate (viability) of cancer cells, HL-60 [13]: 101.8
CC(C)NC[C@H](O)COc1ccc(CCOCC2CC2)cc1 [Levobetaxolol HCl] | 76.9 | 70.3 | 99.2 | 88.7 | 62.5 | 69.9 | 119 | 98.2 | 75.9 | 85 | 77.3 | 80 | 107 | 0 | significant inhibition effect | 
O=C(O)c1nn(Cc2ccc(Cl)cc2Cl)c2ccccc12 [Lonidamine] | 65.8 | 81.2 | 114 | 61.6 | 69.9 | 65.9 | 93.3 | 86.4 | 109 | 86.9 | 102 | 96.1 | 115 | 0 | significant inhibition effect | 

Reference: patent US20170304388A1, “NEW INDICATION OF CARDIOVASCULAR DRUGS FOR PREPARATION OF CANCER INHIBITION PHARMACEUTICAL COMPOSITION” (LAUNX BIOMEDICAL CO., LTD., priority 2014, published 2017)
